From ChEMBL document CHEMBL4483862, “Open-source discovery of chemical leads for next-generation chemoprotective antimalarials” (2018)

Tested on: Plasmodium berghei
Assay: Luciferase/luciferin-expressing antifolate-resistant parasites were used to infect a culture of HepG2 cells that were pre-incubated with compounds. Infected hepatocytes emit light due to the luciferase reaction. Assay results are presented as the percent inhibition of light emission compared to control. […]
Type: functional
Conditions: sporozoite; for IC90: read-out: LUCIFERASE INFECTION ASSAY - IC90
[1] = read-out: LUCIFERASE INFECTION ASSAY - IC50

O=C(NC(=O)c1csnn1)Nc1cc(C(F)(F)F)cc(C(F)(F)F)c1 was tested, and the IC50 (FFLUC_HILL_SLOPE 15.9, FFLUC_R_SQUARED 0.485, HEPG2TOX_HILL_SLOPE 1.3, HEPG2TOX_R_SQUARED 0.92, PBLUC_HILL_SLOPE 2.07, PBLUC_R_SQUARED 0.679, read-out: LUCIFERASE INFECTION ASSAY - IC50) was 0.72 µM and the IC90 was 2.08 µM.
O=C(NNc1cccc(Cl)c1)c1c[nH]c(=S)n1-c1ccccc1 showed an IC50 (PBLUC_HILL_SLOPE 16, PBLUC_R_SQUARED 0.438, read-out: LUCIFERASE INFECTION ASSAY - IC50) of 9.92 µM and an IC90 of over 10 µM.
Cc1ccc(NC2c3ccccc3-c3ccccc32)cc1 was tested, and the IC50 (PBLUC_HILL_SLOPE 2, PBLUC_R_SQUARED 0.71, read-out: LUCIFERASE INFECTION ASSAY - IC50) was 6.95 µM and the IC90 was over 10 µM.
In the case of CCOC(=O)c1sc(N(Cc2ccccc2)C(=O)C2CC2C)nc1C (centres undefined), the IC50 (PBLUC_HILL_SLOPE 0.389, PBLUC_R_SQUARED 0.128, read-out: LUCIFERASE INFECTION ASSAY - IC50) is reported as 1.6 µM and the IC90 is reported as over 10 µM.
For O=c1c2c3c(sc2nc(SCc2cc([N+](=O)[O-])cc4c2OCOC4)n1C1CCCC1)CCCC3, the IC50 (FFLUC_HILL_SLOPE 0.343, FFLUC_R_SQUARED 0.0189, read-out: LUCIFERASE INFECTION ASSAY - IC50) was over 10 µM and the IC90 was over 10 µM.
In the case of O=C(CNc1cccc(S(=O)(=O)N2CCCCC2)c1)NC(=O)NC1CCCC1, the IC50 (HEPG2TOX_HILL_SLOPE 4.49, HEPG2TOX_R_SQUARED 0.873, PBLUC_HILL_SLOPE 2.27, PBLUC_R_SQUARED 0.353, read-out: LUCIFERASE INFECTION ASSAY - IC50) is reported as 7.49 µM and the IC90 is reported as over 10 µM.
Compound Cc1ccc(-c2nc3c(c(SCCN4CCCC4)n2)COC(C)(C)C3)cc1 has an IC50 (PBLUC_HILL_SLOPE 2.75, PBLUC_R_SQUARED 0.0927, read-out: LUCIFERASE INFECTION ASSAY - IC50) of 7.13 µM and an IC90 of over 8.6 µM.
In the case of Fc1ccc(N/N=C/Cc2nnnn2-c2ccccc2)cc1, the IC50 (HEPG2TOX_HILL_SLOPE 8.77, HEPG2TOX_R_SQUARED 0.625, PBLUC_HILL_SLOPE 4.51, PBLUC_R_SQUARED 0.347, read-out: LUCIFERASE INFECTION ASSAY - IC50) is reported as 7.9 µM and the IC90 is reported as over 11.1 µM.
With O=C1C(c2ccccc2)=C(c2ccccc2)C(c2ccccc2)=C1c1ccccc1 the IC50 (FFLUC_HILL_SLOPE 1.74, FFLUC_R_SQUARED 0.65, PBLUC_HILL_SLOPE 1.01, PBLUC_R_SQUARED 0.27, read-out: LUCIFERASE INFECTION ASSAY - IC50) was 4.04 µM and the IC90 was over 8.58 µM.
Cc1ccc(-n2c(C)cc(C3=NN=C(NC4CC4)SC3)c2C)cc1C gave an IC90 of 3.59 µM.
CCC(C)NC(=O)c1c(NC(=O)c2ccccc2Cl)nc2ccc(C)cn12 (centres undefined) was tested, and the IC50 (HEPG2TOX_HILL_SLOPE 2.82, HEPG2TOX_R_SQUARED 0.923, PBLUC_HILL_SLOPE 8.99, PBLUC_R_SQUARED 0.855, read-out: LUCIFERASE INFECTION ASSAY - IC50) was 2.96 µM and the IC90 was 3.78 µM.
With O=C(Nc1ccc(SC(F)(F)F)cc1)Nc1ccc(Sc2ccc(Cl)cc2)nc1 the IC50 (HEPG2TOX_HILL_SLOPE 3.12, HEPG2TOX_R_SQUARED 0.943, PBLUC_HILL_SLOPE 7.91, PBLUC_R_SQUARED 0.378, read-out: LUCIFERASE INFECTION ASSAY - IC50) was 3.97 µM and the IC90 was 5.24 µM.
Compound C=CS(=O)(=O)Oc1cc(C)cc(C)c1 has an IC50 (HEPG2TOX_HILL_SLOPE 2.11, HEPG2TOX_R_SQUARED 0.803, read-out: LUCIFERASE INFECTION ASSAY - IC50) of over 10 µM and an IC90 of over 10 µM.
Compound S=c1[nH]nc(-c2cccnc2Oc2ccccc2)n1-c1ccc(Cl)c(Cl)c1 has an IC50 [1] of over 7.95 µM and an IC90 of over 7.95 µM.
With Cc1nccnc1-c1ccnn1C(=O)Nc1cc(Cl)cc(Cl)c1 the IC50 (HEPG2TOX_HILL_SLOPE 3.03, HEPG2TOX_R_SQUARED 0.982, PBLUC_HILL_SLOPE 8.5, PBLUC_R_SQUARED 0.804, read-out: LUCIFERASE INFECTION ASSAY - IC50) was 0.372 µM and the IC90 was 0.481 µM.
With C=CCn1c(SC(C(=O)c2c[nH]c3ccccc23)c2ccccc2)nc2sc(C)c(C)c2c1=O (centres undefined) the IC50 (FFLUC_HILL_SLOPE 2.34, FFLUC_R_SQUARED 0.404, HEPG2TOX_HILL_SLOPE 0.632, HEPG2TOX_R_SQUARED 0.765, PBLUC_HILL_SLOPE 19.2, PBLUC_R_SQUARED 0.592, read-out: LUCIFERASE INFECTION ASSAY - IC50) was 3.33 µM and the IC90 was 3.74 µM.
Compound COC(=O)c1sc2[nH]c(COC(=O)c3ccccc3)nc(=O)c2c1C has an IC50 [1] of over 10 µM and an IC90 of over 10 µM.
O=C1N(Cc2ccccn2)C(=O)C2(CCN(Cc3cc4ccccc4o3)CC2)N1CCc1ccccc1 showed an IC50 (HEPG2TOX_HILL_SLOPE 6.35, HEPG2TOX_R_SQUARED 0.629, PBLUC_HILL_SLOPE 2.7, PBLUC_R_SQUARED 0.846, read-out: LUCIFERASE INFECTION ASSAY - IC50) of 4.34 µM and an IC90 of over 6.67 µM.
Work on N#CC(Nc1ccc(C(F)(F)F)cc1)c1ccccc1 (centres undefined) yielded an IC50 [1] of over 11.9 µM and an IC90 of over 11.9 µM.
Nc1cccc(-c2cn3c(-c4ccc5c(c4)OCO5)cnc3cn2)c1 showed an IC50 (PBLUC_HILL_SLOPE 4.69, PBLUC_R_SQUARED 0.303, read-out: LUCIFERASE INFECTION ASSAY - IC50) of 5.08 µM and an IC90 of 8.12 µM.
CC(Sc1nc2ccccc2c(=O)n1CCN(C(C)C)C(C)C)C(N)=O (centres undefined) showed an IC50 (PBLUC_HILL_SLOPE 1.51, PBLUC_R_SQUARED 0.457, read-out: LUCIFERASE INFECTION ASSAY - IC50) of 6.73 µM and an IC90 of over 10 µM.
With Cc1ccc(NC(=O)c2cc(-c3cc(Cl)ccc3C)[nH]n2)cc1NS(C)(=O)=O the IC50 (PBLUC_HILL_SLOPE 10.6, PBLUC_R_SQUARED 0.45, read-out: LUCIFERASE INFECTION ASSAY - IC50) was 5.92 µM and the IC90 was 7.29 µM.
With OC(c1cc(C(F)(F)F)cc(C(F)(F)F)c1)c1cc(C(F)(F)F)cc(C(F)(F)F)c1 the IC50 (HEPG2TOX_HILL_SLOPE 8.63, HEPG2TOX_R_SQUARED 0.166, read-out: LUCIFERASE INFECTION ASSAY - IC50) was over 7.23 µM and the IC90 was over 7.23 µM.
Compound Oc1ccc(-c2cn3c(-c4ccsc4)cnc3cn2)cc1 has an IC50 [1] of 10.6 µM and an IC90 of over 11.2 µM.
With CN(C)c1ccc(CNCCC(c2ccc(F)cc2)c2ccco2)cc1 (centres undefined) the IC50 (HEPG2TOX_HILL_SLOPE 13.3, HEPG2TOX_R_SQUARED 0.508, PBLUC_HILL_SLOPE 4.7, PBLUC_R_SQUARED 0.649, read-out: LUCIFERASE INFECTION ASSAY - IC50) was 1.15 µM and the IC90 was 1.83 µM.
In the case of CC(C)(C)c1cc2nc(C(F)(F)F)cc(N/N=C/c3ccccc3)n2n1, the IC50 (PBLUC_HILL_SLOPE 15.2, PBLUC_R_SQUARED 0.244, read-out: LUCIFERASE INFECTION ASSAY - IC50) is reported as 8.24 µM and the IC90 is reported as over 9.13 µM.
Cc1ccc(-c2noc(CCCN3CCN(C(=O)Cn4cnc5c(C)cccc5c4=O)CC3)n2)cc1 was tested, and the IC50 [1] was over 10 µM and the IC90 was over 10 µM.
For COC(=O)c1cc(C#N)c(S(C)(=O)=O)s1, the IC50 (HEPG2TOX_HILL_SLOPE 3.75, HEPG2TOX_R_SQUARED 0.937, PBLUC_HILL_SLOPE 11, PBLUC_R_SQUARED 0.132, read-out: LUCIFERASE INFECTION ASSAY - IC50) was 12.1 µM and the IC90 was over 13.5 µM.
Compound O=C(c1ccc(NS(=O)(=O)c2cccs2)cc1)N1CCC(c2c[nH]c3ccccc23)CC1 has an IC50 [1] of over 10 µM and an IC90 of over 10 µM.
With N#Cc1ccc(NC(=O)C2CC2(Cl)Cl)cc1 (centres undefined) the IC50 [1] was over 10 µM and the IC90 was over 10 µM.
For O=C(Nc1nc2ccccc2[nH]1)c1ccoc1, the IC50 (HEPG2TOX_HILL_SLOPE 2.41, HEPG2TOX_R_SQUARED 0.931, read-out: LUCIFERASE INFECTION ASSAY - IC50) was over 10 µM and the IC90 was over 10 µM.
With CC(C)c1ccc(Nc2nccc3nc(-c4cccc(F)c4)[nH]c23)cc1 the IC50 (HEPG2TOX_HILL_SLOPE 1.91, HEPG2TOX_R_SQUARED 0.651, PBLUC_HILL_SLOPE 0.872, PBLUC_R_SQUARED 0.722, read-out: LUCIFERASE INFECTION ASSAY - IC50) was 1.39 µM and the IC90 was over 10 µM.
With CC(=O)c1ccc(NC(=O)Cn2nc(-c3ccco3)ccc2=O)cc1 the IC50 (FFLUC_HILL_SLOPE 14.3, FFLUC_R_SQUARED 0.29, read-out: LUCIFERASE INFECTION ASSAY - IC50) was over 9.78 µM and the IC90 was over 9.78 µM.
In the case of O=C(Cn1cc(I)c(=O)c(I)c1)OCC(=O)N1CCCc2ccccc21, the IC50 [1] is reported as over 10 µM and the IC90 is reported as over 10 µM.
In the case of COc1cc(-c2cc3[nH]c4ccccc4n3c(=O)c2Sc2ccc([N+](=O)[O-])cc2)cc(OC)c1OC, the IC50 (PBLUC_HILL_SLOPE 1.34, PBLUC_R_SQUARED 0.513, read-out: LUCIFERASE INFECTION ASSAY - IC50) is reported as 1.78 µM and the IC90 is reported as 9.18 µM.
With CNc1nc2cnc(Nc3cc(OC)cc(C(F)(F)F)c3)cc2n1Cc1ccco1 the IC50 [1] was over 10 µM and the IC90 was over 10 µM.
In the case of Cn1c(-c2ccccc2)c(/C=N/Nc2ccnc3cc(Cl)ccc23)c2ccccc21, the IC50 (HEPG2TOX_HILL_SLOPE 17.0, 5.95, HEPG2TOX_R_SQUARED 0.687, 0.986, PBLUC_HILL_SLOPE 1.29, PBLUC_R_SQUARED 0.592, read-out: LUCIFERASE INFECTION ASSAY - IC50) is reported as 1.17 µM and the IC90 is reported as 6.47 µM.
CCC(C)NC(=O)c1c(NC(=O)c2cccc(C)c2)nc2ccc(C)cn12 (centres undefined) showed an IC50 (HEPG2TOX_HILL_SLOPE 8.22, HEPG2TOX_R_SQUARED 0.0887, PBLUC_HILL_SLOPE 4.24, PBLUC_R_SQUARED 0.444, read-out: LUCIFERASE INFECTION ASSAY - IC50) of 3.93 µM and an IC90 of 6.6 µM.
Work on COc1cc(-c2cnc3c(Nc4cccc(OC(F)(F)C(F)F)c4)nccn23)cc(OC)c1OC yielded an IC50 (HEPG2TOX_HILL_SLOPE 8.4, HEPG2TOX_R_SQUARED 0.356, PBLUC_HILL_SLOPE 3.39, PBLUC_R_SQUARED 0.397, read-out: LUCIFERASE INFECTION ASSAY - IC50) of 2.81 µM and an IC90 of 5.38 µM.
Work on C=CCNc1nc(Nc2ccc(OC)c(OC)c2)c2sc(-c3ccccc3)cc2n1 yielded an IC50 [1] of 3.61 µM and an IC90 of over 7.88 µM.
